The values that follow come from patent US9293713B2, “Arylamine compound” (RICOH COMPANY, LTD., priority 2012, dated 2016).

Series [1] can be described thus: Preparation of ink (evaluation of solubility): degree of solubility from saturated solution. Type of series: physicochemical. The settings on record: for degree of solubility, 1,2,3,4-Tetrahydronaphthalene: solvent 1,2,3,4-tetrahydronaphthalene (Tetralin); for degree of solubility, 2-Propanol: solvent 2-propanol; for degree of solubility, ethyl benzoate: solvent ethyl benzoate; for degree of solubility, Toluene: solvent toluene. How it is done:
HTL17 was added to each of toluene, chloroform, 2-propanol, 1,2,3,4-tetrahydronaphthalene (Tetralin®), ethyl benzoate (100 mL respectively), until undissolved compound was observed. The mixture was stirred for 10 minute with refluxing the solvent. Then, mixture was cooled to ambient temperature, and stirred for 1 hour, followed by still standing for 16 hours. The supernatant was filtrated by PTFE filter having thickness of 0.2 μm to obtain saturated solution. The saturated solution was dried under reduced pressure to calculate degree of solubility for each solvent.
Evaluation criteria in Table 4 was described below.

A short description of series [2]: Pyrolysis behavior observed by TG-DTA. As to conditions: for difference of mass reduced between theoretical value and actual measured value: heating. The format is physicochemical. How it is done: HTL17 synthesized in Example 1 was heated at a range of 25° C. to 450° C. at a temperature increasing rate of 5° C./min and the pyrolysis behavior thereof was observed by TG-DTA [reference: Al2O3, under nitrogen flow (200 mL/min), EXSTAR6000 (product name), product of Seiko Instruments Inc.].
The results are shown in FIG. 2, where the horizontal axis indicates temperature [° C.], the left-hand vertical axis indicates change in mass [mg] and the right-hand vertical axis indicates DTA signal [μV].

[3] abbreviates: saturated solution at ambient temperature.

Molecules are shown by their SMILES.

Take `CCCCCC(=O)OC1CCC(OC(=O)CCCCC)c2cc(N(c3ccc(-c4ccc(N(c5ccc6c(c5)C(OC(=O)CCCCC)CCC6OC(=O)CCCCC)c5ccc6ccccc6c5)cc4)cc3)c3ccc4ccccc4c3)ccc21` (stereo not drawn) [HTL17]: in series [1] (setting [3]), the “degree of solubility, 1,2,3,4-Tetrahydronaphthalene” value is recorded as “A (The degree of solubility is not less than 5% by mass)”; the “degree of solubility, 2-Propanol” value is on record as “A (The degree of solubility is not less than 5% by mass)”; the “degree of solubility, ethyl benzoate” value is recorded as “A (The degree of solubility is not less than 5% by mass)”; the “degree of solubility, Toluene” value was “A (The degree of solubility is not less than 5% by mass)”. For the same compound, the mass reduction in series [2] (from ambient temperature to 250° C., 5° C./min, nitrogen flow) turned out to be 40.0%.
`CCCCCC(=O)OC1CCC(OC(=O)CCCCC)c2cc(N(c3ccc(-c4ccc(N(c5ccc6c(c5)C(OC(=O)CCCCC)CCC6OC(=O)CCCCC)c5cccc6ccccc56)cc4)cc3)c3cccc4ccccc34)ccc21` (stereo not drawn) [HTL18]: in series [1] (setting [3]), the “degree of solubility, 1,2,3,4-Tetrahydronaphthalene” value is recorded as “A (The degree of solubility is not less than 5% by mass)”; the “degree of solubility, 2-Propanol” value is given as “A (The degree of solubility is not less than 5% by mass)”; the “degree of solubility, ethyl benzoate” value was “A (The degree of solubility is not less than 5% by mass)”; the “degree of solubility, Toluene” value is reported as “A (The degree of solubility is not less than 5% by mass)”. The “difference of mass reduced between theoretical value and actual measured value” in series [2] is −0.12%.
As to `CCCCCC(=O)OC1CCC(OC(=O)CCCCC)c2cc(N(c3ccc(C4(c5ccc(N(c6ccc7c(c6)C(OC(=O)CCCCC)CCC7OC(=O)CCCCC)c6ccc7ccccc7c6)cc5)c5ccccc5-c5ccccc54)cc3)c3ccc4ccccc4c3)ccc21` (stereo not drawn) [HTL33], in series [1] (setting [3]), the “degree of solubility, 1,2,3,4-Tetrahydronaphthalene” value is recorded as “A (The degree of solubility is not less than 5% by mass)”; the “degree of solubility, 2-Propanol” value is “B (The degree of solubility is not less than 1% by mass but less than 5% by mass.)”; the “degree of solubility, ethyl benzoate” value is listed as “A (The degree of solubility is not less than 5% by mass)”; the “degree of solubility, Toluene” value is “A (The degree of solubility is not less than 5% by mass)”. Moreover, the “difference of mass reduced between theoretical value and actual measured value” in series [2] is recorded as −0.16%.
`CCCCCC(=O)OC1C=C(c2ccc(N(c3ccc(C4=CC(OC(=O)CCCCC)CCC4OC(=O)CCCCC)cc3)c3ccc(-c4ccc(N(c5ccc(C6=CC(OC(=O)CCCCC)CCC6OC(=O)CCCCC)cc5)c5ccc(C6=CC(OC(=O)CCCCC)CCC6OC(=O)CCCCC)cc5)cc4)cc3)cc2)C(OC(=O)CCCCC)CC1` (stereo not drawn) [HTL34]: in series [1] (prophetic example), the “degree of solubility, 1,2,3,4-Tetrahydronaphthalene” value is “A (The degree of solubility is not less than 5% by mass)”; the “degree of solubility, 2-Propanol” value was “B (The degree of solubility is not less than 1% by mass but less than 5% by mass.)”; the “degree of solubility, ethyl benzoate” value is listed as “A (The degree of solubility is not less than 5% by mass)”; the “degree of solubility, Toluene” value is on record as “A (The degree of solubility is not less than 5% by mass)”. The “difference of mass reduced between theoretical value and actual measured value” in series [2] (prophetic example) is −0.18%.
As for `c1ccc2c(c1)-c1ccccc1C2(c1ccc(N(c2ccc3ccccc3c2)c2ccc3ccccc3c2)cc1)c1ccc(N(c2ccc3ccccc3c2)c2ccc3ccccc3c2)cc1` [NPAPF, 9,9-bis[4-(N,N-bis-naphthalene-2-yl-amino)phenyl]-9H-florene, reference compound], in series [1] (setting [3]), the “degree of solubility, 1,2,3,4-Tetrahydronaphthalene” value is “B (The degree of solubility is not less than 1% by mass but less than 5% by mass.)”; the “degree of solubility, 2-Propanol” value is “C (The degree of solubility is less than 1% by mass)”; the “degree of solubility, ethyl benzoate” value is “C (The degree of solubility is less than 1% by mass)”; the “degree of solubility, Toluene” value is reported as “B (The degree of solubility is not less than 1% by mass but less than 5% by mass.)”.
For the compound `c1ccc(-c2ccc(N(c3ccc(-c4ccccc4)cc3)c3ccc(-c4ccc(N(c5ccc(-c6ccccc6)cc5)c5ccc(-c6ccccc6)cc5)cc4)cc3)cc2)cc1` [TBPB, N,N,N′,N′-tetra-biphenyl-4-yl-benzidine, reference compound], in series [1] (prophetic example), the “degree of solubility, 1,2,3,4-Tetrahydronaphthalene” value was “B (The degree of solubility is not less than 1% by mass but less than 5% by mass.)”; the “degree of solubility, 2-Propanol” value is on record as “C (The degree of solubility is less than 1% by mass)”; the “degree of solubility, ethyl benzoate” value is given as “B (The degree of solubility is not less than 1% by mass but less than 5% by mass.)”; the “degree of solubility, Toluene” value is “A (The degree of solubility is not less than 5% by mass)”.
As for `c1ccc2cc(N(c3ccc(-c4ccc(N(c5ccc6ccccc6c5)c5cccc6ccccc56)cc4)cc3)c3cccc4ccccc34)ccc2c1` [α,β-TNB, 4,4′-bis[N-(1-naphthyl)-N-(2-naphthyl)amino]biphenyl, reference compound], in series [1] (setting [3]), the “degree of solubility, 1,2,3,4-Tetrahydronaphthalene” value is “A (The degree of solubility is not less than 5% by mass)”; the “degree of solubility, 2-Propanol” value was “C (The degree of solubility is less than 1% by mass)”; the “degree of solubility, ethyl benzoate” value is “B (The degree of solubility is not less than 1% by mass but less than 5% by mass.)”; the “degree of solubility, Toluene” value is “A (The degree of solubility is not less than 5% by mass)”.
Take `c1ccc2cc(N(c3ccc(-c4ccc(N(c5ccc6ccccc6c5)c5cccc6ccccc56)cc4)cc3)c3cccc4ccccc34)ccc2c1` [α-TNB, 4,4′-tetrakis[N-(1-naphthyl)-N-(2-naphthyl)amino]biphenyl, reference compound]: in series [1] (prophetic example), the “degree of solubility, 1,2,3,4-Tetrahydronaphthalene” value is on record as “B (The degree of solubility is not less than 1% by mass but less than 5% by mass.)”; the “degree of solubility, 2-Propanol” value is listed as “C (The degree of solubility is less than 1% by mass)”; the “degree of solubility, ethyl benzoate” value is given as “B (The degree of solubility is not less than 1% by mass but less than 5% by mass.)”; the “degree of solubility, Toluene” value is “A (The degree of solubility is not less than 5% by mass)”.
